As a reminder, the Vss is a proportionality between amount in the body and measured concentration, not a real space.

For one series, the target named is CYP2C9 (Homo sapiens (Human), UniProt P11712). Description: Cytochrome P450 activity inhibition, CYP2C9. The series is classed as in vitro ADME. Conditions: 10 μM, human liver microsomes. The source says: (§1) 1) Cytochrome P450 (CYP450) Activity Inhibition Evaluation
Another series concerns ERRγ. It is filed as cell-based. Conditions: activity relative to reference compound GSK5182.
The target of a further series is CYP1A2 (Homo sapiens (Human), UniProt P05177). Description: Cytochrome P450 activity inhibition, CYP1A2. The series is classed as in vitro ADME. Conditions: 10 μM, human liver microsomes.
From the text: as §1

Another series addresses CYP2D6 (Homo sapiens (Human), UniProt P10635). In words: Cytochrome P450 activity inhibition, CYP2D6. It is filed as in vitro ADME. Conditions: 10 μM, human liver microsomes.
From the text: as §1

A further series deals with CYP2C19 (Homo sapiens (Human), UniProt P33261). In words: Cytochrome P450 activity inhibition, CYP2C19. Particulars: 10 μM, human liver microsomes. The series is classed as in vitro ADME.
From the text: as §1
In general terms: Liver microsomes are a subcellular fraction often used to study metabolism.

The target of the next series is CYP3A4 (Homo sapiens (Human), UniProt P08684). In words: Cytochrome P450 activity inhibition, CYP3A4. It is filed as in vitro ADME. Conditions: 10 μM, human liver microsomes.
Series [1] is classed as in vitro ADME, human. Particulars: 1 μM, 30 minutes, 37° C.
Protocol: 2) Microsomal Stability Evaluation
(§2) Four liver microsomes (Human, Dog, Rat, Mouse 0.5 mg/ml) with a 0.1 M phosphate buffer solution (pH 7.4), and the arylethene derivative of the present invention were added to a concentration of 1 μM, culturing was performed at 37° C. for 5 minutes in advance, a NADPH regeneration system solution was added thereto, and culturing was performed at 37° C. for 30 minutes. Thereafter, in order to complete the reaction, an acetonitrile solution containing an internal standard material (chlorpropamide) was added thereto, centrifugation (14,000 rpm, 4° C.) was performed for 5 minutes, and a supernatant was injected into a LC-MS/MS system to analyze the substrate drug, thereby evaluating metabolism stability to the arylethene derivative of the present invention.
The format of series [2] is in vitro ADME, rat. Conditions: 1 μM, 30 minutes, 37° C.
Protocol: 2) Microsomal Stability Evaluation
as §2
The format of series [3] is in vivo. Conditions: rat, IV 1 mg/kg.
Protocol: An oral administration group fasts the day before.
Blood of each animal is collected at 0 hour.
Into a tail vein of an intravenous administration group (IV), a drug is injected at a dose of 1 mg/kg (syringe).
To an oral administration group (PO), a drug is orally administered at a dose of 10 mg/kg (oral zondec)
After administration, blood of the intravenous administration group was collected through a jugular vein 8 times at 0.08, 0.25, 0.5, 1, 2, 4, 6, and 8 hours. One collected blood amount is 400 to 500 ul.
After administration, blood of the oral administration group was collected through a jugular vein 6 times at 0.25, 0.5, 1, 4, 6 and 8 hours. One collected blood amount is 400 to 500 ul.
Supernatant plasma is collected by a centrifuge.
The supernatant plasma was injected into a LC-MS/MS system and the drug is analyzed.

Chain of CYP1A2 (P05177 whole entry): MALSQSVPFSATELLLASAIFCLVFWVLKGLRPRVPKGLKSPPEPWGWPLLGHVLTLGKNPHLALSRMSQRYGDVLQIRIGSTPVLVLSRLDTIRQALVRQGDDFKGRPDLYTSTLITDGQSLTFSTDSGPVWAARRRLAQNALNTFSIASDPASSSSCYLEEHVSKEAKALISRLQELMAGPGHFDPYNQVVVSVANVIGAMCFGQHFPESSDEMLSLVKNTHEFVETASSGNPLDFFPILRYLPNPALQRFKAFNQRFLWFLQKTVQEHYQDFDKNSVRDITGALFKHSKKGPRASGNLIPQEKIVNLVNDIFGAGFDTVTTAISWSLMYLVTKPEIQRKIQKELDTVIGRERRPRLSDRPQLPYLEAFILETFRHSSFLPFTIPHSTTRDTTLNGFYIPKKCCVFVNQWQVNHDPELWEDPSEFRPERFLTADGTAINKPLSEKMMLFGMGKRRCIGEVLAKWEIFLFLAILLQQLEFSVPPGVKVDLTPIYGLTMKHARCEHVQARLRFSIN
Chain of CYP3A4 (P08684 whole entry): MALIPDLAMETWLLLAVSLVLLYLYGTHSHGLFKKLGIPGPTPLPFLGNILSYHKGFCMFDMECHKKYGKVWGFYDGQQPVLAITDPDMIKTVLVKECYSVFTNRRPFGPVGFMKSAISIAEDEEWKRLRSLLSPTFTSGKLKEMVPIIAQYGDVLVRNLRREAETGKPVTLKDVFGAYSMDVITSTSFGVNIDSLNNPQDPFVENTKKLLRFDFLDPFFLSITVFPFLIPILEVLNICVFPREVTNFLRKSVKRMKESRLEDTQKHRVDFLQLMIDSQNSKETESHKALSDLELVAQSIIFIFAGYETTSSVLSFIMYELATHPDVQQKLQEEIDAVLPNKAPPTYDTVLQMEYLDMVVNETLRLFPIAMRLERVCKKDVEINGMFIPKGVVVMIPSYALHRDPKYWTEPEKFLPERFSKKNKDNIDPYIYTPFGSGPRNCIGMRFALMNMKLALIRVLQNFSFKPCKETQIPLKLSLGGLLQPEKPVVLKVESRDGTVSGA
Chain of CYP2D6 (P10635 whole entry): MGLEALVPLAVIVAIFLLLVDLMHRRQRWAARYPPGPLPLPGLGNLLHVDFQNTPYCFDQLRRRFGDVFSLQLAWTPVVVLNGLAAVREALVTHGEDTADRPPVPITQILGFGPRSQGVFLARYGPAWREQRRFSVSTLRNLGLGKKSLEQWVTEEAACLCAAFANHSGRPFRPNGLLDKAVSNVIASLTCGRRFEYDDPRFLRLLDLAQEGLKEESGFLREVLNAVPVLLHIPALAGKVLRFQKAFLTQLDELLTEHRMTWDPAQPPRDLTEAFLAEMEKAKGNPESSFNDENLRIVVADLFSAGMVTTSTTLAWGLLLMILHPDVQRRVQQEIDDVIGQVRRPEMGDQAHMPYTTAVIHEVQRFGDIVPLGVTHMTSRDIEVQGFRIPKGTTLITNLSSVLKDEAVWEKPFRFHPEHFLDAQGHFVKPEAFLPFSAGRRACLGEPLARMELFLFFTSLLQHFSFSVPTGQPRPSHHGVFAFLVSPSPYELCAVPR
Chain of CYP2C9 (P11712 whole entry): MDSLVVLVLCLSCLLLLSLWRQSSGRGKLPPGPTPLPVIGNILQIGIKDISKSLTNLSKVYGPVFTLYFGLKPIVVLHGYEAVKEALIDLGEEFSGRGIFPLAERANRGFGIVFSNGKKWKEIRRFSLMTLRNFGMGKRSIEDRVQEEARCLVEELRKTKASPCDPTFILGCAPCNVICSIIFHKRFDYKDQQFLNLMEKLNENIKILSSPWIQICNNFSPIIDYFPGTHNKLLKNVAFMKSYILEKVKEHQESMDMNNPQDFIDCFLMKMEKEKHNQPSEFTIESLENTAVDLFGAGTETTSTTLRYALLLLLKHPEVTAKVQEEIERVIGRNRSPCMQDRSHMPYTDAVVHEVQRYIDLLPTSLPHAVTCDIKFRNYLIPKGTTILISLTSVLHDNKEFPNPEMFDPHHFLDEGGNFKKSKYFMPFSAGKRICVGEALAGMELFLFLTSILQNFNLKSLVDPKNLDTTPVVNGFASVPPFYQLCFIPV
Chain of CYP2C19 (P33261 whole entry): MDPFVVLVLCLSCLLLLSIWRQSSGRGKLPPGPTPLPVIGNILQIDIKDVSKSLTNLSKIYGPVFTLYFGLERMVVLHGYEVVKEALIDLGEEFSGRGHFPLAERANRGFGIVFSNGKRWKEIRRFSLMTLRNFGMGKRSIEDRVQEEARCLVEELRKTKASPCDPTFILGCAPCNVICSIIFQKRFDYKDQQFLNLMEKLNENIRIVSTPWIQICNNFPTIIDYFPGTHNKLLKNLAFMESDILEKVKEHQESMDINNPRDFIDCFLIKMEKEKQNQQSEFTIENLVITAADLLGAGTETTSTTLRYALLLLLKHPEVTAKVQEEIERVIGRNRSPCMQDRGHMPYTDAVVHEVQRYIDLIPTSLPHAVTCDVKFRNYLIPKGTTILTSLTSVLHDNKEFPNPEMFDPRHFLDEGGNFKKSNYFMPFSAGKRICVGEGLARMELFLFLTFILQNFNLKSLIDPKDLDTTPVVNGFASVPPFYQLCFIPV
Protocol for CYP3A4: Thereafter, in order to complete the reaction, an acetonitrile solution containing an internal standard material (Terfenadine) was added thereto, centrifugation (14,000 rpm, 4° C.) was performed for 5 minutes, and a supernatant was injected into a LC-MS/MS system to analyze the metabolites of the substrate drug, thereby evaluating drug metabolism enzyme inhibition by the arylethene derivative of the present invention.
Protocol for ERRγ: AD293 was cultured in a 24-well plate for 24 hours, using a DMEM High glucose culture medium (Hyclone, USA) to which 0.5% FBS was added at a concentration of 9×10^4/well. The culture medium was replaced with a DMEM High glucose culture medium to which 10% FBS was added, treatment was performed with a mixture of a TransIT-LT1 transfection reagent (Minis, USA) and pCMX-Gal4-ERRγ, pFR-luciferase reporter plasmid, pCMV-β-gal, and culturing was performed for 24 hours. Thereafter, a luciferase activity assay and a β-gal assay were performed, respectively, with a lysate obtained after treatment with the arylethene derivative of the present invention for 24 hours. All results were derived from three or more independent repetitive experiments.

Turning to `CN1CCCC1CCOc1ccc(/C(=C(/CCCO)c2ccccc2)c2ccc(O)cc2)cc1` (stereo not shown) [Compound 6g], the “CYP inhibition (% of control) 2C9” value at CYP2C9 is listed as 75.4 % of control. The “Functional Assay, Cpds/Ref 5182” value in the series on ERRγ turned out to be 1.60. For the same molecule, at CYP1A2, the “CYP inhibition (% of control) 1A2” value was 97.8 % of control. For the same molecule, the “CYP inhibition (% of control) 2D6” value at CYP2D6 is 81.7 % of control. Also, the “CYP inhibition (% of control) 2C19” value at CYP2C19 was 81.8 % of control. Moreover, the “CYP inhibition (% of control) 3A4” value on CYP3A4 is on record as 83.7 % of control.

`CN1CCC[C@H]1CCOc1ccc(/C(=C(/CCCO)c2ccccc2)c2ccc(O)cc2)cc1` [Compound 6j]: the “CYP inhibition (% of control) 2C9” value at CYP2C9 is reported as 85.6 % of control. Also, the “Functional Assay, Cpds/Ref 5182” value with ERRγ was 0.77. In addition, the “CYP inhibition (% of control) 1A2” value on CYP1A2 is 98.7 % of control. Moreover, the “CYP inhibition (% of control) 2D6” value on CYP2D6 was 85.2 % of control. Moreover, the “CYP inhibition (% of control) 2C19” value at CYP2C19 is 89.1 % of control. The “CYP inhibition (% of control) 3A4” value on CYP3A4 is 74.6 % of control.

`Cl.Cl.OCCC/C(=C(\c1ccc(O)cc1)c1ccc(OCCN2CCNCC2)cc1)c1ccccc1` [Compound 7a, (Z)-4-(5-hydroxy-2-phenyl-1-(4-(2-(piperazin-1-yl)ethoxy)phenyl)pent-1-en-1-yl)phenol 2hydrochloride Salt]: the “Functional Assay, Cpds/Ref 5182” value in the series with ERRγ came to 0.86. Moreover, the “MS (Microsomal Stability) (%) human” value in series [1] is recorded as 49.0%.

On to `CC(C)N1CCN(c2ccc(/C(=C(/CCCO)c3ccccc3)c3ccc(Br)cc3)cc2)CC1` [Compound 18h], for which the “MS (Microsomal Stability) (%) human” value in [1] is above 100%.

With `Cc1ccc(/C(=C(\CCCO)c2ccccc2)c2ccc(C3CCNCC3)cc2)cc1` [Compound 20k], the “MS (Microsomal Stability) (%) rat” value in [2] is given as 89.0%.

With `OCCC/C(=C(\c1ccc(O)cc1)c1ccc(C2CCN(C3CC3)CC2)cc1)c1ccccc1` [Compound 22i], the “MS (Microsomal Stability) (%) human” value in [1] came out at 36.0%.

As for `OCCC/C(=C(/c1ccc(C2CCN(C3CC3)CC2)cc1)c1cccc(O)c1)c1ccccc1` [Compound 22r], the “CYP inhibition (% of control) 2C9” value on CYP2C9 is >100 % of control. Further, the “CYP inhibition (% of control) 1A2” value at CYP1A2 is given as >100 % of control. The “CYP inhibition (% of control) 2C19” value at CYP2C19 is on record as >100 % of control. For the same molecule, the “MS (Microsomal Stability) (%) human” value in series [1] amounted to 62.0%.

For the molecule `CN1CCN(c2ccc(/C(=C(/CCCO)c3ccccc3)c3ccc(N)cc3)cc2)CC1` [Compound 26a, (Z)-5-(4-aminophenyl)-5-(4-(4-methylpiperazin-1-yl)phenyl)-4-phenylpent-4-en-1-ol], at CYP2C9, the “CYP inhibition (% of control) 2C9” value is on record as 53.2 % of control. Moreover, in the series with ERRγ, the “Functional Assay, Cpds/Ref 5182” value came to 0.84. In addition, on CYP1A2, the “CYP inhibition (% of control) 1A2” value is on record as >100 % of control. Also, the “CYP inhibition (% of control) 2D6” value on CYP2D6 is 85.5 % of control. At CYP2C19, the “CYP inhibition (% of control) 2C19” value is 89 % of control. At CYP3A4, the “CYP inhibition (% of control) 3A4” value is listed as 75.4 % of control.

Turning to `OCCC/C(=C(\c1ccc(O)cc1)c1ccc(OCCN2CCC3(CCNC3)C2)cc1)c1ccccc1` (stereo not shown) [Compound 39, (Z)-4-(1-(4-(2-(2,7-diazaspiro[4.4]nonan-2-yl)ethoxy)phenyl)-5-hydroxy-2-phenylpent-1-en-1-yl)phenol], at CYP2C9, the “CYP inhibition (% of control) 2C9” value is 74.4 % of control. Besides, the “CYP inhibition (% of control) 1A2” value at CYP1A2 is on record as 82.5 % of control. The “CYP inhibition (% of control) 2D6” value at CYP2D6 is recorded as 67.8 % of control. Further, the “CYP inhibition (% of control) 2C19” value at CYP2C19 is reported as 73.9 % of control. Moreover, the “CYP inhibition (% of control) 3A4” value at CYP3A4 is 59 % of control.

Regarding `O=C(CN1CCCCC1)Nc1ccc(/C(=C(/CCCO)c2ccccc2)c2ccc(O)cc2)cc1` [Compound 44, (E)-N-(4-(5-hydroxy-1-(4-hydroxyphenyl)-2-phenylpent-1-en-1-yl)phenyl)-2-(piperidin-1-yl)acetamide], in series [3], the AUCINF stood at 0.34 μMh, the AUCall is on record as 0.28 μMh, the “Cl(observed)/F” value is recorded as 139 mL/min/kg and the Vss was determined as 52.8 L/kg. Moreover, the t1/2 in series [3] is given as 4.4 h.

The record behind these values is patent US11285226B2, “Aryl ethene derivative and pharmaceutical composition containing same as active ingredient” (priority 2016, dated 2022).
